Laboratory results: US4539333A, “Prostacyclin, methods of using and method of making” (Burroughs Wellcome Co., priority 1976, dated 1985)

Legend:
[1] = test system: human platelet rich plasma (PRP); experiment: Aggregation of platelets in fresh human platelet rich plasma, Born aggregometer; type: cell-based
Method: Aggregation of platelets in 1 ml. of fresh human platelet rich plasma (PRP) was monitored in a Born aggregometer. An immediate anti-aggregatory effect of the fresh reaction mixture of Example 1 of aortic microsomes with PGH2 or PGG2 was observed. The lowest anti-aggregatory concentration was obtained with samples containing 0.5-5 ng. Prostacyclin/ml.

[2] = Stability of Prostacyclin and of its anti-aggregatory activity (aqueous medium, storage); type: physicochemical
Method: Prostacyclin is unstable at room temperature in aqueous medium, having a half-life of approximately 10 mins., but its anti-aggregatory activity can be preserved for several days by dissolving the substance in aqueous alkali or in dry acetone and storing at -20° C. […] Prostacyclin also interrupts and reverses the presence of platelet aggregation.
The anti-aggregatory activity of the extracted Prostacyclin disappeared on bioling (15 seconds) or on standing at 22° C. for 20 minutes. The anti-aggregatory activity of Prostacyclin could be preserved for several days by dissolving the substance in dry acetone and storing at -20° C.

[3] = test system: rabbit aorta, rabbit coeliac artery, rat stomach strip and rat colon; experiment: Profile of biological activity on isolated tissues
Method: 5.xi.-Iodo-9-deoxy-6.xi., 9α-epoxyprostaglandin F1α methyl ester (500 mg) was stirred with methanolic NaOMe prepared from Na (0.23 g., 10 equivs.) and MeOH (3.5 ml.) under N2 at room temperature overnight; 1N aq. NaOH (2.5 ml.) was added to the yellow reaction solution to bring about hydrolysis of the ester moiety and, after 2 hours, the methanol was evaporated in vacuo at room temperature. The residual aqueous solution gave rise spontaneously to a mass of colourless fine needles of the desired sodium salt (formula (I): R=Na) which was cooled (0°), collected, washed sparingly with 1N aq. NaOH, air-dried, and stored in a stoppered tube; this salt (383 mg.) had max (KBr disc) 1692 cm^-1 [drawing 4] and twenty ^13 C resonances only were observed (at 182.7 (C-1), 158.2 (C-6), 140.0 and 134.3 (C-13, 14), 100.7(C-5), 87.5(C-15), 80.6 and 75.5(C-9, 11), 58.0(C-12), 49.0, 45.8, 42.4, 41.9, 37.5, 35.8 (C-18), 31.6., 29.9, 29.3, 26.7(C-19), and 18.4(C-20) ppm from TMS in DMSO-d6). The product, sodium (5Z)- 5,6-didehydro-9-deoxy-6,9α-epoxyprostaglandin F1α (syn. sodium prostacyclin), thus obtained completed inhibited arachidonic acid-induced platelet aggregation (human platelet-rich plasma) at 1 ng./ml. and its profile of biological activity on the rabbit aorta, rabbit coeliac artery, rat stomach strip and rat colon conformed with that of sodium prostacyclin obtained by biosynthesis. […]

blood pressure = experiment: Blood pressure and heart rate in normotensive anaesthetised rats; type: in vivo; conditions: injected intravenously and intra-aortically
Method: Prostacyclin was injected intravenously and intra-aortically into normotensive anaethetised rats and the blood pressure and heart rate recorded.

[4] = test system: strips of coronary artery from the ox; experiment: Relaxation of spirally cut strips of coronary artery; conditions: dose dependent effect
Method: The effect is dose dependent and relaxation can be seen with doses as low as 20 nanograms per 5 ml bath.

[5] = test system: isolated hearts from rabbits; experiment: Isolated hearts perfused at constant flow rate by the Langendorf technique; conditions: rabbit hearts
[6] = test system: strips of coeliac and mesenteric arteries; experiment: Relaxation of strips of coeliac and mesenteric arteries; set-up: species or system rabbit
[7] = test system: gastric lesions induced by indomethacin; experiment: Gastric lesions induced in rats by indomethacin; type: in vivo; conditions: doses from 62.5 to 250 μg/kg, subcutaneous injection
strips of rabbit aorta = experiment: Contraction of rabbit aorta strips (cascade superfusion bioassay)
Method: Aortic microsomal powder (5 mg) was incubated with 1 μg of prostalgandin endoperoxide (PGG2 or PGH2) in 0.05 M Tris buffer (pH 7.5) (1 ml.) for 2 minutes at 22° C. Enzyme activity was estimated by direct bioassay of the incubation mixture. After incubation of 2 minutes at 22° C. all prostaglandin endoperoxide activity was lost indicated by a lack of contraction of rabbit aorta strips when assayed by the cascade superfusion technique of Vane (Br. J. Pharmacy. 23, 369-373, 1964 indicating 100% conversion of PGG2 or PGH2.

SMILES | IC100 ([1]; arachidonic acid-induced, human platelet-rich plasma, read-out: concentration giving complete inhibition of arachidonic acid-induced platelet aggregation) [µg/mL] | stability in water at acid pH ([2]; water, acid pH) | profile of biological activity compared with sodium prostacyclin obtained by biosynthesis [3] | minimal effective concentration ([1]; Platelet, fresh reaction mixture of aortic microsomes with PGH2 or PGG2, 1 ml human PRP, read-out: lowest anti-aggregatory concentration) [µg/mL] | effect on platelet aggregation induced by arachidonic acid and PGG2 ([1]; diethyl ether extracts) | anti-aggregatory potency relative to PGD2 ([1]; times more potent than PGD2, on average) | anti-aggregatory potency relative to PGE1 ([1]; times more potent than PGE1, on average) | anti-aggregatory activity after boiling ([2]; boiling, 15 seconds, extracted Prostacyclin) | time for which anti-aggregatory activity is preserved on storage ([2]; dissolved in dry acetone (b5: or aqueous alkali), stored at -20° C.) | half-life ([2]; room temperature, aqueous medium) [min] | anti-aggregatory activity after standing ([2]; standing at 22° C. for 20 minutes, extracted Prostacyclin) | vasodepressor potency relative to PGE2 (blood pressure) [times] | lowest dose at which relaxation can be seen [4] [nanograms per 5 ml bath] | effect on coronary vessels [5] | effect on strips of coeliac and mesenteric arteries [6] | potency compared with PGE2 on coeliac and mesenteric artery strips [6] | effect on formation of gastric lesions [7] | effect on strips of rabbit aorta (strips of rabbit aorta)
CCCCC[C@H](O)/C=C/[C@@H]1[C@H]2C/C(=C/CCCC(=O)O)O[C@H]2C[C@H]1O [sodium prostacyclin, sodium (5Z)-5,6-didehydro-9-deoxy-6,9α-epoxyprostaglandin F1α] | 0.001 | instability | conformed | – | – | – | – | – | – | – | – | – | – | – | – | – | – | –
CCCCC[C@H](O)/C=C/[C@@H]1[C@H]2C/C(=C/CCCC(=O)O)O[C@H]2C[C@H]1O [Prostacyclin, (5Z)-5,6-didehydro-9-deoxy-6,9α-epoxyprostaglandin F1α] | – | – | – | 0.0005 to 0.005 | inhibited | 5-20 times | 10-40 times | disappeared | several days | ~10 | disappeared | 5 | 20 | produced coronary vasodilation | relaxed | less potent than PGE2 | inhibit the formation of gastric lesions | does not contract
